Assay: Drug-excipient compatibility study (impurity formation on storage at 40° C. and 75% relative humidity)
Format: physicochemical
Protocol: Prasugrel hydrochloride and mixtures with excipients in the weight ratios stated below are mixed well and sifted through an ASTM #40 mesh sieve. The mixture is placed into open glass vials, stored at 40° C. and 75% relative humidity for four weeks, and samples are analyzed at intervals to evaluate the extent of impurity formation. Values for impurities in the table below are calculated as percent by weight of the original prasugrel content.

## CC(=O)Oc1cc2c(s1)CCN(C(C(=O)C1CC1)c1ccccc1F)C2 (stereo not drawn) [Prasugrel, 5-[2-cyclopropyl-1-(2-fluorophenyl)-2-oxoethyl]-4,5,6,7-tetrahydrothieno[3,2-c]pyridin-2-yl acetate]
1 week at 40° C. and 75% relative humidity, open glass vials
  Total Impurities, 1 Week: 0.6547 percent by weight of the original prasugrel content
2 weeks at 40° C. and 75% relative humidity, open glass vials
  Total Impurities, 2 Weeks: 0.6982 percent by weight of the original prasugrel content
3 weeks at 40° C. and 75% relative humidity, open glass vials
  Total Impurities, 3 Weeks: 0.7488 percent by weight of the original prasugrel content
4 weeks at 40° C. and 75% relative humidity, open glass vials
  Total Impurities, 4 Weeks: 0.8998 percent by weight of the original prasugrel content
Initial, open glass vials
  Total Impurities, Initial: 0.6301 percent by weight of the original prasugrel content
Accelerated stability testing conditions
  Stability in the presence of the excipients studied: acceptable stability

Reference: patent US20090281136A1, “PRASUGREL PHARMACEUTICAL FORMULATIONS” (priority 2008, published 2009)
